In patent US10555987B2, “GHRH agonists for the treatment of ischemic disorders” (UNIVERSITY OF MIAMI, priority 2012, dated 2020):
Non-standard residues stand in square brackets, D forms with d. Residues, ends and D or L forms follow the SMILES beside them. *: point of attachment. Desaminotyrosyl = O=C(CCc1ccc(O)cc1)*; hArg = N=C(N)NCCCC[C@H](N)C(=O)O; Nle = CCCC[C@H](N)C(=O)O; Orn = NCCC[C@H](N)C(=O)O; Abu = CC[C@H](N)C(=O)O

Molecular target: T1, GHRH receptor (Homo sapiens, UniProt Q02643)
T1 sequence (Q02643 23-423): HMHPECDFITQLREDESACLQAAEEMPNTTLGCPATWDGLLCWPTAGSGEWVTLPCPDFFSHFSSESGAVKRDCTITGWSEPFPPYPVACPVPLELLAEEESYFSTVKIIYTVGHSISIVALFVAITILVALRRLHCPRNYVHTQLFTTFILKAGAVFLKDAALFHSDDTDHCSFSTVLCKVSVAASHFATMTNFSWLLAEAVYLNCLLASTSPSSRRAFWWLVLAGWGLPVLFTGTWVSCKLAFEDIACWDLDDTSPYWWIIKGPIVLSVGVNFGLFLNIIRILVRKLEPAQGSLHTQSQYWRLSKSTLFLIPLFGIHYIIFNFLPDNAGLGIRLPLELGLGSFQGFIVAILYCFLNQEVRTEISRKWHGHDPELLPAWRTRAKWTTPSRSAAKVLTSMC
Assay: GHRH receptor binding, competition with 125I-labeled [His1,Nle27]hGHRH(1-32)NH2, human pituitary membrane homogenates (Table 6)
Set-up: Normal human pituitaries were purchased from the National Hormone and Peptide Program; tissue National Hormone and Peptide Program (A.F. Parlow, Harbor-UCLA Medical Center, Torrance, Calif.); host or cells: normal human pituitary, membrane fraction
Conditions: for Relative affinity (Binding potency) vs GHRH: GHRH(1-29) = 1, Table 6; for Relative affinity (Binding potency) vs JI-38: JI-38 = 1, Table 6
Text: Normal human pituitaries were purchased from the National Hormone and Peptide Program (A.F. Parlow, Los Angeles, County Harbor-UCLA Medical Center, Torrance, Calif.).

SMILES	Relative affinity (Binding potency) vs GHRH	Relative affinity (Binding potency) vs JI-38
CCCC[C@H](NC(=O)[C@@H](NC(=O)[C@H](CC(=O)O)NC(=O)[C@H](CCC(N)=O)NC(=O)[C@H](CC(C)C)NC(=O)[C@H](CC(C)C)NC(=O)[C@H](CCCN)NC(=O)[C@H](CCCNC(=N)N)NC(=O)[C@H](C)NC(=O)[C@H](CO)NC(=O)[C@H](CC(C)C)NC(=O)[C@H](CCC(N)=O)NC(=O)[C@H](CC)NC(=O)[C@H](CC(C)C)NC(=O)[C@@H](NC(=O)[C@H](CCCN)NC(=O)[C@H](CCCNC(=N)N)NC(=O)[C@H](Cc1ccc(O)cc1)NC(=O)[C@H](CO)NC(=O)[C@H](CC(N)=O)NC(=O)[C@@H](NC(=O)[C@H](Cc1ccccc1)NC(=O)[C@@H](NC(=O)[C@H](C)NC(=O)[C@H](CC(=O)O)NC(=O)[C@@H](C)NC(=O)CCc1ccc(O)cc1)[C@@H](C)CC)[C@@H](C)O)C(C)C)[C@@H](C)CC)C(=O)N[C@@H](CC(=O)O)C(=O)N[C@@H](CCCNC(=N)N)C(=O)N[C@@H](CCCCNC(=N)N)C(N)=O [Peptide P-23252, [Dat^1-D-Ala^2, Orn^12, Abu^15, Orn^21, Nle^27, Asp^28, Har^30]hGHRH(1-30)NH^2] (Desaminotyrosyl-[dA]DAIFTNSYR[Orn]VL[Abu]QLSAR[Orn]LLQDI[Nle]DR[hArg]-NH2)	42.3	13.9
CCCC[C@H](NC(=O)[C@@H](NC(=O)[C@H](CC(=O)O)NC(=O)[C@H](CCC(N)=O)NC(=O)[C@H](CC(C)C)NC(=O)[C@H](CC(C)C)NC(=O)[C@H](CCCN)NC(=O)[C@H](CCCNC(=N)N)NC(=O)[C@H](C)NC(=O)[C@H](CO)NC(=O)[C@H](CC(C)C)NC(=O)[C@H](CCC(N)=O)NC(=O)[C@H](CC)NC(=O)[C@H](CC(C)C)NC(=O)[C@@H](NC(=O)[C@H](CCCN)NC(=O)[C@H](CCCNC(=N)N)NC(=O)[C@H](Cc1ccc(O)cc1)NC(=O)[C@H](CO)NC(=O)[C@@H](NC(=O)[C@@H](NC(=O)[C@H](Cc1ccccc1)NC(=O)[C@@H](NC(=O)[C@H](C)NC(=O)[C@H](CC(=O)O)NC(=O)[C@@H](C)NC(=O)CCc1ccc(O)cc1)[C@@H](C)CC)[C@@H](C)O)[C@@H](C)O)C(C)C)[C@@H](C)CC)C(=O)N[C@@H](CC(=O)O)C(=O)N[C@@H](CCCNC(=N)N)C(=O)N[C@@H](CCCCNC(=N)N)C(N)=O [Peptide P-23254, [Dat^1, D-Ala^2, Thr^8, Orn^12, Abu^15, Orn^21, Nle^27, Asp^28, Har^30]hGHRH(1-30)NH2] (Desaminotyrosyl-[dA]DAIFTTSYR[Orn]VL[Abu]QLSAR[Orn]LLQDI[Nle]DR[hArg]-NH2)	84.5	27.8
CCCC[C@H](NC(=O)[C@@H](NC(=O)[C@H](CC(=O)O)NC(=O)[C@H](CCC(N)=O)NC(=O)[C@H](CC(C)C)NC(=O)[C@H](CC(C)C)NC(=O)[C@H](CCCN)NC(=O)[C@H](CCCNC(=N)N)NC(=O)[C@H](C)NC(=O)[C@H](CO)NC(=O)[C@H](CC(C)C)NC(=O)[C@H](CCC(N)=O)NC(=O)[C@H](CC)NC(=O)[C@H](CC(C)C)NC(=O)[C@@H](NC(=O)[C@H](CCCN)NC(=O)[C@H](CCCNC(=N)N)NC(=O)[C@H](Cc1ccc(O)cc1)NC(=O)[C@H](CO)NC(=O)[C@H](C)NC(=O)[C@@H](NC(=O)[C@H](Cc1ccccc1)NC(=O)[C@@H](NC(=O)[C@H](C)NC(=O)[C@H](CC(=O)O)NC(=O)[C@@H](C)NC(=O)CCc1ccc(O)cc1)[C@@H](C)CC)[C@@H](C)O)C(C)C)[C@@H](C)CC)C(=O)N[C@@H](CC(=O)O)C(=O)N[C@@H](CCCNC(=N)N)C(=O)N[C@@H](CCCCNC(=N)N)C(N)=O [Peptide P-23256, [Dat^1, D-Ala^2, Ala^8, Orn^12, Abu^15, Orn^21, Nle^27, Asp^28, Har^30]hGHRH(1-30)NH2] (Desaminotyrosyl-[dA]DAIFTASYR[Orn]VL[Abu]QLSAR[Orn]LLQDI[Nle]DR[hArg]-NH2)	148.0	48.7
